Some test systems named below: CCRF-CEM; HL-60; HT-29; IGROV-1; LXFL 529; M14; NCI-H23; NCI-H460; NCI-H522; OVCAR-5; OVCAR-8; SK-MEL-28; SK-MEL-5; SW-620; TK-10; DU-145; HCC 2998; HCT-116; NCI-H226; PC-3.
Holding throughout (assay): inhibition of tumour cell growth, NCI panel, 48 h

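Where inhibition never reached the appropriate level, the endpoint shown equals the highest concentration tested. Otherwise, values were interpolated linearly from a five-concentration, 48-hour dose response in 96-well plates. GI50 marks 50% less growth.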 Calls of active or inactive are those of the source. Rule as the data show it: active = GI50 up to about 1.1 µM and inactive = higher.

Regarding `COc1ccc(S(=O)(=O)NC(C)C(=O)O)cc1` (stereo not given), the GI50 in the assay with CCRF-CEM, with HL-60, in the assay with HT-29, in the assay with IGROV-1, in the assay with LXFL 529 and in the assay with M14 was > 100 µM (inactive) each time. For the same compound, the GI50 in the assay on NCI-H23, in the assay with NCI-H460, with NCI-H522, in the assay with OVCAR-5, in the assay with OVCAR-8 and in the assay with SK-MEL-28 was > 100 µM (inactive) each time. Moreover, the GI50 in the assay with SK-MEL-5, in the assay with SW-620 and in the assay with TK-10 was > 100 µM (inactive) throughout.

Consider `CC(C)(C)C1(O)C=C(O)C(=O)N1NC(=O)c1ccccc1Nc1ccccc1` (stereo not given), for which the GI50 is 8.43 µM (inactive) in the assay with CCRF-CEM; > 100 µM (inactive) in the assay with DU-145; 19.2 µM (inactive) with HCC 2998; 38.6 µM (inactive) with HCT-116; 0.847 µM (active) with HL-60; 41.1 µM (inactive) with HT-29. In addition, the GI50 is 66.7 µM (inactive) with IGROV-1; 76.4 µM (inactive) in the assay with M14; 48.2 µM (inactive) with NCI-H226; 41 µM (inactive) in the assay on NCI-H23; 34.4 µM (inactive) with NCI-H460; 16.6 µM (inactive) in the assay on NCI-H522. Also, the GI50 in the assay with OVCAR-5 was 84.5 µM (inactive); in the assay with OVCAR-8, 37.9 µM (inactive); in the assay on PC-3, 40 µM (inactive); in the assay on SK-MEL-28, 50.2 µM (inactive); in the assay on SK-MEL-5, 35.4 µM (inactive); in the assay on SW-620, 34 µM (inactive). Moreover, the GI50 in the assay on TK-10 was 46.3 µM (inactive).

Turning to `Cc1cccc(-c2cc(O)c3c(C)ccnc3n2)c1`, the GI50 is 0.583 µM (active) in the assay with CCRF-CEM; 1.05 µM (active) in the assay with DU-145; 1.03 µM (active) in the assay with HCC 2998; 0.355 µM (active) in the assay on HCT-116; 0.166 µM (active) with HL-60; 0.339 µM (active) in the assay with HT-29. For the same compound, the GI50 with IGROV-1 is 0.681 µM (active); with M14 it was 0.291 µM (active); in the assay on NCI-H226, 0.495 µM (active); in the assay with NCI-H23, 1.17 µM (inactive); with NCI-H460, 0.363 µM (active); with NCI-H522, 0.247 µM (active). Besides, the GI50 in the assay with OVCAR-5 is 1.19 µM (inactive); in the assay on OVCAR-8, 0.718 µM (active); in the assay with PC-3, 0.371 µM (active); in the assay on SK-MEL-28 it was > 61.1 µM (inactive); with SK-MEL-5, 0.269 µM (active); in the assay on SW-620, 0.169 µM (active). In the assay with TK-10, the GI50 is > 53.1 µM (inactive).

For `Clc1ccc(COc2ccccc2/C=N/c2c(-c3ccco3)nc3ccccn23)c(Cl)c1`, the GI50 in the assay with CCRF-CEM was 12.9 µM (inactive); in the assay with DU-145, 25.8 µM (inactive); with HCC 2998, 95.9 µM (inactive); with HCT-116, 17.5 µM (inactive); in the assay with HL-60, 27 µM (inactive); with HT-29, 31.9 µM (inactive). In addition, the GI50 is 25.2 µM (inactive) in the assay on IGROV-1; 26.1 µM (inactive) in the assay with M14; 25.7 µM (inactive) in the assay on NCI-H226; 32.3 µM (inactive) with NCI-H23; 71 µM (inactive) in the assay on NCI-H460; > 100 µM (inactive) in the assay with NCI-H522. Also, the GI50 is > 100 µM (inactive) in the assay with OVCAR-5; 26.5 µM (inactive) in the assay with OVCAR-8; 39.8 µM (inactive) in the assay with PC-3; 66.4 µM (inactive) in the assay with SK-MEL-28; 15.8 µM (inactive) with SK-MEL-5; 26.2 µM (inactive) in the assay with SW-620. Also, the GI50 in the assay with TK-10 was 36.2 µM (inactive).

Regarding `O=C1c2cccnc2-c2nccc3c2c1nc1ccc(Br)cc13`, the GI50 in the assay with CCRF-CEM was < 0.01 µM (active); in the assay on DU-145 it was 0.0225 µM (active); in the assay with HCC 2998, 0.164 µM (active); in the assay on HCT-116, < 0.0136 µM (active); in the assay with HL-60 it was 0.0184 µM (active); with HT-29 it was 0.282 µM (active). Also, the GI50 was 0.038 µM (active) in the assay on IGROV-1; 0.0243 µM (active) in the assay on M14; 0.0199 µM (active) in the assay on NCI-H226; 0.0313 µM (active) in the assay on NCI-H23; 0.065 µM (active) in the assay on NCI-H460; 0.0528 µM (active) in the assay with NCI-H522. The GI50 in the assay with OVCAR-5 was 0.106 µM (active); in the assay with OVCAR-8, 0.0662 µM (active); in the assay on PC-3, 0.0426 µM (active); in the assay with SK-MEL-28, 0.0252 µM (active); in the assay with SK-MEL-5 it was 0.0247 µM (active); with SW-620, 0.0404 µM (active). Also, the GI50 in the assay on TK-10 is 0.273 µM (active).

Take `CC(C)c1cc(C(C)C)c(B(c2ccccc2)c2ccccc2)c(C(C)C)c1Br`: the GI50 in the assay with CCRF-CEM, in the assay with DU-145, in the assay on HCC 2998, in the assay on HCT-116, in the assay with HL-60 and with HT-29 was > 100 µM (inactive) throughout. Also, the GI50 with IGROV-1, in the assay on M14, in the assay on NCI-H226, in the assay with NCI-H23, in the assay on NCI-H460 and with NCI-H522 was > 100 µM (inactive) in each case. In addition, the GI50 with OVCAR-5, in the assay with OVCAR-8, in the assay on PC-3, with SK-MEL-28, with SK-MEL-5 and with SW-620 was > 100 µM (inactive) each time. For the same compound, in the assay with TK-10, the GI50 was > 100 µM (inactive).

`CC(=O)Nc1ccc2c3c(cc(O)c2c1)N(C(=O)CCCCCCC(=O)Nc1ccc2c4c(cc(O)c2c1)N(C(=O)OC(C)(C)C)CC4CCl)CC3CCl` (stereo not given): the GI50 is < 0.01 µM (active) with CCRF-CEM; 0.0211 µM (active) in the assay with DU-145; 0.0502 µM (active) in the assay with HCC 2998; 0.0408 µM (active) in the assay with HCT-116; < 0.0108 µM (active) with HL-60; 0.155 µM (active) in the assay on HT-29. For the same compound, the GI50 in the assay on IGROV-1 was 0.0822 µM (active); in the assay on M14, 0.0791 µM (active); in the assay with NCI-H226, 0.144 µM (active); in the assay on NCI-H23, 0.0337 µM (active); in the assay with NCI-H460, 0.0233 µM (active); in the assay with NCI-H522, 0.0387 µM (active). Further, the GI50 in the assay with OVCAR-5 was 0.109 µM (active); with OVCAR-8 it was 0.0973 µM (active); in the assay with PC-3, 0.105 µM (active); in the assay on SK-MEL-28 it was 0.279 µM (active); in the assay with SK-MEL-5, 0.0217 µM (active); with SW-620 it was 0.0968 µM (active). The GI50 in the assay on TK-10 was 0.344 µM (active).

Turning to `CC(=O)O[C@H]1CC[C@@]2(C)C(=CC[C@H]3[C@@H]4CC[C@H](c5cc(C(F)(F)F)n(C(C)=O)n5)[C@@]4(C)CC[C@@H]32)C1`, the GI50 in the assay on CCRF-CEM was 2.98 µM (inactive); with DU-145, 11.4 µM (inactive); in the assay with HCC 2998, 13.6 µM (inactive); with HCT-116, 3.88 µM (inactive); with HL-60, 3.5 µM (inactive); in the assay with HT-29, 4.62 µM (inactive). For the same compound, the GI50 is 3.84 µM (inactive) in the assay on IGROV-1; 8.51 µM (inactive) with M14; 3.24 µM (inactive) in the assay on NCI-H226; 6.05 µM (inactive) in the assay with NCI-H23; 2.63 µM (inactive) in the assay with NCI-H460; 17.1 µM (inactive) with NCI-H522. The GI50 is 9.4 µM (inactive) with OVCAR-5; 5.57 µM (inactive) in the assay on OVCAR-8; 4.47 µM (inactive) in the assay with PC-3; 13.6 µM (inactive) in the assay on SK-MEL-28; 3.45 µM (inactive) in the assay with SK-MEL-5; 12.9 µM (inactive) in the assay on SW-620. In addition, the GI50 with TK-10 is 5.22 µM (inactive).

For the compound `O=C(/C=C/c1ccsc1)c1ccco1`, the GI50 in the assay with CCRF-CEM is 5.86 µM (inactive); in the assay on DU-145, 13.6 µM (inactive); in the assay with HCC 2998, 12.2 µM (inactive); in the assay on HCT-116 it was 5.97 µM (inactive); in the assay on HL-60 it was 7.26 µM (inactive); with HT-29 it was 9.95 µM (inactive). In addition, the GI50 in the assay with IGROV-1 was 10.4 µM (inactive); in the assay on M14, 11.2 µM (inactive); in the assay on NCI-H226 it was 28.1 µM (inactive); with NCI-H23 it was 14.2 µM (inactive); in the assay on NCI-H460, 14.3 µM (inactive); in the assay with NCI-H522, 1.76 µM (inactive). Besides, the GI50 was 17.1 µM (inactive) with OVCAR-5; 11.7 µM (inactive) in the assay with OVCAR-8; 14.6 µM (inactive) with PC-3; 12.8 µM (inactive) in the assay with SK-MEL-28; 15.4 µM (inactive) in the assay on SK-MEL-5; 7.55 µM (inactive) with SW-620. Also, the GI50 in the assay on TK-10 is 20 µM (inactive).

Regarding `C=C[C@H]1CN2CCc3c([nH]c4cc(O)ccc34)[C@@H]2C[C@@H]1C[C@H]1c2[nH]c3ccccc3c2CCN1C`, the GI50 in the assay with CCRF-CEM was 1.69 µM (inactive); in the assay with DU-145, 15.6 µM (inactive); in the assay on HCC 2998, 1.76 µM (inactive); in the assay on HCT-116, 2.42 µM (inactive); in the assay with HL-60, 1.04 µM (active); in the assay on HT-29, 2.48 µM (inactive). The GI50 is 1.85 µM (inactive) in the assay with IGROV-1; 1.74 µM (inactive) in the assay with M14; 18.7 µM (inactive) in the assay with NCI-H226; 16 µM (inactive) with NCI-H23; 2.07 µM (inactive) with NCI-H460; 2.99 µM (inactive) in the assay with NCI-H522. Moreover, the GI50 was 17 µM (inactive) with OVCAR-5; 6.11 µM (inactive) in the assay with OVCAR-8; 4.89 µM (inactive) in the assay on PC-3; 1.78 µM (inactive) in the assay with SK-MEL-28; 1.73 µM (inactive) in the assay with SK-MEL-5; 1.92 µM (inactive) in the assay on SW-620. In addition, the GI50 with TK-10 was 8.57 µM (inactive).

On to `CN(CCNC(=O)c1n[nH]c2c1ccc1ccccc12)CCNC(=O)c1n[nH]c2c1ccc1ccccc12`, for which the GI50 is 2.2 µM (inactive) in the assay on CCRF-CEM; 2.49 µM (inactive) in the assay with DU-145; 1.91 µM (inactive) in the assay on HCC 2998; 2.13 µM (inactive) in the assay with HCT-116; 2.75 µM (inactive) with HL-60; 2.01 µM (inactive) in the assay with HT-29. Further, the GI50 in the assay on IGROV-1 is 1.77 µM (inactive); in the assay with M14, 1.82 µM (inactive); in the assay on NCI-H226, 4.32 µM (inactive); in the assay with NCI-H23, 1.96 µM (inactive); in the assay with NCI-H460, 2.3 µM (inactive); in the assay on NCI-H522, 1.95 µM (inactive). The GI50 is 1.81 µM (inactive) in the assay on OVCAR-5; 2.05 µM (inactive) in the assay on OVCAR-8; 2.49 µM (inactive) in the assay with PC-3; 1.93 µM (inactive) in the assay on SK-MEL-28; 1.71 µM (inactive) in the assay with SK-MEL-5; 1.84 µM (inactive) in the assay with SW-620. Besides, the GI50 in the assay with TK-10 is 2.25 µM (inactive).

The values above are taken from ChEMBL document CHEMBL1201862, “PubChem BioAssay data set” (2004).
